Patent US10670605B2, “Cysteine reactive probes and uses thereof” (The Scripps Research Institute, priority 2015, dated 2020)

Key:
Assay in all cases: Competitive isoTOP-ABPP in situ (fragment-treated cells)
Format in all cases: cell-based
[1] = target: T1, cysteines in MDA-MB-231 and Ramos cells (Homo sapiens, UniProt O75521)
T1 sequence (O75521 39-394): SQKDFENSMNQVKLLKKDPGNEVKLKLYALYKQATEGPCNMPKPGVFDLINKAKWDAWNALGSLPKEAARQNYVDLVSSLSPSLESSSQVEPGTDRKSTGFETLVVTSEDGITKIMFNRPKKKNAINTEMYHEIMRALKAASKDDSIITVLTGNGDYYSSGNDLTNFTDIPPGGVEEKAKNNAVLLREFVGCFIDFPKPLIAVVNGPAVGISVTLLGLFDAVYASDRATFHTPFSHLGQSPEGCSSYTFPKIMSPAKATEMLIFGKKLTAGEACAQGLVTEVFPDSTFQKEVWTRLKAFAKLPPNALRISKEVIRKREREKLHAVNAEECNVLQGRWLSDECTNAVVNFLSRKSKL

[2] = target: T2, cysteines in MDA-MB-231 and Ramos cells (Homo sapiens, UniProt P11216)
T2 sequence (P11216 1-843): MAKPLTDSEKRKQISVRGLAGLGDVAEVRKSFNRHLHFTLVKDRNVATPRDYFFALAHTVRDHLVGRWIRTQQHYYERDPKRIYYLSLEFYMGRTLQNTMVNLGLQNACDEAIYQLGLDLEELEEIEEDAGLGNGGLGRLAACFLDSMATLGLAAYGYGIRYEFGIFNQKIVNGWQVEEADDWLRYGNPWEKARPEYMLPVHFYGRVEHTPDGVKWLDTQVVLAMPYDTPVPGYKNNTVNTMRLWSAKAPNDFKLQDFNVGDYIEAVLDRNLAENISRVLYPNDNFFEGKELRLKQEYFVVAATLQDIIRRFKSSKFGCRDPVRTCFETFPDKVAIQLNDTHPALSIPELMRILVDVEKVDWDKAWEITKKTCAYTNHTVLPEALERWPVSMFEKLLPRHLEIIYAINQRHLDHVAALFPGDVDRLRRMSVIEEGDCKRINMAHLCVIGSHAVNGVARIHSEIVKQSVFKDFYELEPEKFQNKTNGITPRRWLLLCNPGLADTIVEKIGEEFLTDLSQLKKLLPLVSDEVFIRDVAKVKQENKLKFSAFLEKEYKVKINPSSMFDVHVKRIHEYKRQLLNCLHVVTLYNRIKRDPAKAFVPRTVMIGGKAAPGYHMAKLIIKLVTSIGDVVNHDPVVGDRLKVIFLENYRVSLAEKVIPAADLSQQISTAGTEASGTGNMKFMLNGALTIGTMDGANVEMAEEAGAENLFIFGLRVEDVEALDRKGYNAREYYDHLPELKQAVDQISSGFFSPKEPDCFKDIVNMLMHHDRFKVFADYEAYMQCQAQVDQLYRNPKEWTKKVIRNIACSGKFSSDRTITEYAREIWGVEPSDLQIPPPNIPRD

[3] = target: T3, cysteines in MDA-MB-231 and Ramos cells (Homo sapiens, UniProt P42765)
T3 sequence (P42765 1-397): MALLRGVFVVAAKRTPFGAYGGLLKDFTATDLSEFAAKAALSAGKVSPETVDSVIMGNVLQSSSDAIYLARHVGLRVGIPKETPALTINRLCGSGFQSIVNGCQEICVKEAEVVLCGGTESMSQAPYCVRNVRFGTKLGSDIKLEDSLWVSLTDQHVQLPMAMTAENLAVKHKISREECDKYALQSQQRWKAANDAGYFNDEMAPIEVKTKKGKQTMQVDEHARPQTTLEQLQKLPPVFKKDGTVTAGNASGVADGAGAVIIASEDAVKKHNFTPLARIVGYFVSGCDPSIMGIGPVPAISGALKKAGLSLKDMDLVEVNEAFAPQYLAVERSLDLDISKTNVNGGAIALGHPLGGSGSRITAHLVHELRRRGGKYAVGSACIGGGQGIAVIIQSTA

[4] = target: T4, cysteines in MDA-MB-231 and Ramos cells (Homo sapiens, UniProt Q5T0N5)
T4 sequence (Q5T0N5 1-605): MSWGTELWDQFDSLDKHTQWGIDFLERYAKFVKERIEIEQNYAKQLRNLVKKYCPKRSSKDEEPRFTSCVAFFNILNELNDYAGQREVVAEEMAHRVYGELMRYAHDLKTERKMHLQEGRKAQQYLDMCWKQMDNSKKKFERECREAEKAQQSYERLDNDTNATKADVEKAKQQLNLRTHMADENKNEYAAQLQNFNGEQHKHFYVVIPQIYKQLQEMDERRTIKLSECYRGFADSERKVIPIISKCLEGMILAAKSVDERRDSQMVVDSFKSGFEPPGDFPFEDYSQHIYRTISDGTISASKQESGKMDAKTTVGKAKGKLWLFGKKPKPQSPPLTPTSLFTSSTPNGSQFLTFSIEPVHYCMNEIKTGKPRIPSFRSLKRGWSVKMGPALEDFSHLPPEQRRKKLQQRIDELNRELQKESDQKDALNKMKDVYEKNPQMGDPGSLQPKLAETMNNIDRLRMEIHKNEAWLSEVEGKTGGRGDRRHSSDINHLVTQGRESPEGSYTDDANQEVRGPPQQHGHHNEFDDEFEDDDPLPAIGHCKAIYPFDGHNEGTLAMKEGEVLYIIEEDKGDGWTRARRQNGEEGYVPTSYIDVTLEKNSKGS

[5] = target: T5, cysteines in MDA-MB-231 and Ramos cells (Homo sapiens, UniProt Q99757)
T5 sequence (Q99757 60-166): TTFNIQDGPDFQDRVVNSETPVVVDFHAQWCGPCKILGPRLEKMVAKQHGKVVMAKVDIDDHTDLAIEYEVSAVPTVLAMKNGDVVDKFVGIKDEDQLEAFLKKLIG

[6] = target: T6, cysteines in MDA-MB-231 and Ramos cells (Homo sapiens, UniProt Q9NQR4)
T6 sequence (Q9NQR4 1-276): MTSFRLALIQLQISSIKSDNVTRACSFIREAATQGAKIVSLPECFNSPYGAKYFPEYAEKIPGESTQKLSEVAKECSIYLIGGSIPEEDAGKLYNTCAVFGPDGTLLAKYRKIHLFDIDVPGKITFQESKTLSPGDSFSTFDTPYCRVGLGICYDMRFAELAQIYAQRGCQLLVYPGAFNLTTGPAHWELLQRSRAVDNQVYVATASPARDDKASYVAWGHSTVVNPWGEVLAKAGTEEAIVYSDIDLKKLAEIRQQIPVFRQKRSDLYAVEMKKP

Row | Structure (SMILES) | isoTOP-ABPP ratio O75521_C312 ([1]; 200 μM, insitu, 231) | isoTOP-ABPP ratio O75521_C380 ([1]; 200 μM, insitu, 231) | isoTOP-ABPP ratio P11216_C326 ([2]; 200 μM, insitu, 231) | isoTOP-ABPP ratio P42765_C92 ([3]; 200 μM, insitu, 231) | isoTOP-ABPP ratio Q5T0N5_C69 ([4]; 200 μM, insitu, 231) | isoTOP-ABPP ratio Q99757_C90 ([5]; 200 μM, insitu, 231) | isoTOP-ABPP ratio Q9NQR4_C153 ([6]; 200 μM, insitu, 231) | isoTOP-ABPP ratio P42765_C92 ([3]; 200 μM, insitu, ramos) | also measured
1 | O=C(CCl)Nc1cccc2ncccc12 [compound 51] |  | 1.0 | 0.8 | 1.1 | 1.7 | 5.0 | 0.6 |  | 
2 | C=CC(=O)Nc1cc(F)c(N2CCN(C(=O)OC(C)(C)C)CC2)c(F)c1 [compound 38] | 1.1 | 0.9 | 1.2 | 0.9 | 1.5 | 3.6 | 1.1 |  | 
3 | COc1cc2c(cc1OC)CN(C(=O)CCl)CC2 [compound 8] |  |  |  |  |  |  |  |  | isoTOP-ABPP reactivity O75521_C312 ECI2 ([1]; 200 μM, insitu, 231): 0.5; isoTOP-ABPP reactivity O75521_C380 ECI2 ([1]; 200 μM, insitu, 231): 0.8; isoTOP-ABPP reactivity P11216_C326 PYGB ([2]; 200 μM, insitu, 231): 20.0; isoTOP-ABPP reactivity P42765_C92 ACAA2 ([3]; 200 μM, insitu, 231): 20.0; isoTOP-ABPP reactivity Q5T0N5_C69 FNBP1L ([4]; 200 μM, insitu, 231): 3.6; isoTOP-ABPP reactivity Q99757_C90 TXN2 ([5]; 200 μM, insitu, 231): 4.5; isoTOP-ABPP reactivity Q9NQR4_C153 N1T2 ([6]; 200 μM, insitu, 231): 20.0
4 | C=CC(=O)N(Cc1cccnc1)c1cc(C(F)(F)F)cc(C(F)(F)F)c1 [compound 31] |  |  | 0.5 | 0.8 |  | 1.4 | 0.6 | 1.2 | isoTOP-ABPP ratio Q9NQR4_C153 ([6]; 200 μM, insitu, ramos): 1.4
5 | O=C(CCl)N1CCC(Cc2ccccc2)CC1 [compound 9] |  |  |  |  |  |  |  |  | isoTOP-ABPP reactivity O75521_C312 ECI2 ([1]; 200 μM, insitu, 231): 0.5; isoTOP-ABPP reactivity O75521_C380 ECI2 ([1]; 200 μM, insitu, 231): 0.7; isoTOP-ABPP reactivity P11216_C326 PYGB ([2]; 200 μM, insitu, 231): 2.6; isoTOP-ABPP reactivity P42765_C92 ACAA2 ([3]; 200 μM, insitu, 231): 4.3; isoTOP-ABPP reactivity Q99757_C90 TXN2 ([5]; 200 μM, insitu, 231): 20.0; isoTOP-ABPP reactivity Q9NQR4_C153 N1T2 ([6]; 200 μM, insitu, 231): 20.0
6 | COc1ccc(C2CC(c3cccs3)=NN2C(=O)CCl)cc1 (centres unmarked) [compound 4] |  |  |  |  |  |  |  |  | isoTOP-ABPP reactivity O75521_C312 ECI2 ([1]; 100 μM in situ 231): 1.0; isoTOP-ABPP reactivity O75521_C380 ECI2 ([1]; 100 μM in situ 231): 1.6; isoTOP-ABPP reactivity P11216_C326 PYGB ([2]; 100 μM in situ 231): 1.7; isoTOP-ABPP reactivity P42765_C92 ACAA2 ([3]; 100 μM in situ 231): 3.7; isoTOP-ABPP reactivity Q5T0N5_C69 FNBP1L ([4]; 100 μM in situ 231): 20.0; isoTOP-ABPP reactivity Q99757_C90 TXN2 ([5]; 100 μM in situ 231): 3.6; isoTOP-ABPP reactivity Q9NQR4_C153 N1T2 ([6]; 100 μM in situ 231): 0.7
7 | O=C(CCl)N1CCN(CC(=O)N2CCOCC2)CC1 [compound 29] |  |  |  |  |  |  |  | 0.9 | isoTOP-ABPP ratio O75521_C380 ([1]; 200 μM, insitu, ramos): 1.2; isoTOP-ABPP ratio Q99757_C90 ([5]; 200 μM, insitu, ramos): 1.6

Further lines, with some results ahead:

Row | isoTOP-ABPP ratio O75521_C312 ([1]; 200 μM, insitu, 231) | isoTOP-ABPP ratio O75521_C380 ([1]; 200 μM, insitu, 231) | isoTOP-ABPP ratio P11216_C326 ([2]; 200 μM, insitu, 231) | isoTOP-ABPP ratio P42765_C92 ([3]; 200 μM, insitu, 231) | isoTOP-ABPP ratio Q5T0N5_C69 ([4]; 200 μM, insitu, 231) | isoTOP-ABPP ratio Q99757_C90 ([5]; 200 μM, insitu, 231) | isoTOP-ABPP ratio Q9NQR4_C153 ([6]; 200 μM, insitu, 231) | isoTOP-ABPP ratio P42765_C92 ([3]; 200 μM, insitu, ramos) | Structure (SMILES) | also measured
8 | 0.7 | 1.2 | 5.3 | 15.1 | 5.4 | 6.7 | 2.0 |  | CC1CCc2ccccc2N1C(=O)CCl (centres unmarked) [compound 45] | 
9 | 0.7 | 1.0 | 1.3 |  | 1.0 |  | 6.2 | 2.2 | O=C(CCl)NCCc1c[nH]c2ccccc12 [compound 13] | isoTOP-ABPP ratio Q9NQR4_C153 ([6]; 200 μM, insitu, ramos): 12.2
